Data as given in patent publication US8680272B2, “3-arylethynyl substituted quinazolinone compounds” (Council of Scientific & Industrial Research, priority 2011, dated 2014).

Columns and labels:
[1] = tested on: eight renal cancer cell line (786-0, A498, ACHN, CAKI-1, SN12C, TK-10, UO-31 and RXF 393); experiment: Anticancer activity, SRB assay, renal panel; type: cell-based, human; set-up: mean graph midpoint values (MG_MID) of Log10LC50 / mean graph midpoint values (MG_MID) of log10 TGI (Log10TGI50): unit not given here; conditions: for GI50: Homo sapiens, eight renal cancer cell line, exposure period of at least 48 h, read-out: in vitro anticancer activity (range over the panel); for mean graph midpoint values (MG_MID) of log10 TGI (Log10TGI50) / mean graph midpoint values (MG_MID) of Log10LC50 / mean graph midpoint values (MG_MID) of Log10GI50: Renal; for mean graph midpoint values (MG_MID) of log10 TGI (Log10TGI50): log value of concentration of the compound resulting in total inhibition of net cell growth; for mean graph midpoint values (MG_MID) of Log10LC50: log value of the concentration of compounds leading to 50% net cell death; for mean graph midpoint values (MG_MID) of Log10GI50: log values of concentration in mol/L causing 50% inhibition of net cell growth
Experimental: (§1) Some of biological activity studies were carried out at the National Cancer Institute (NCI), Maryland, USA.
(§2) The compounds were evaluated for anticancer activity against sixty human cancer cells derived from nine cancer types (leukemia cell line, non-small-cell lung cell line, colon cell line, CNS cell line, melanoma cell line, ovarian cell line, prostate cell line, renal cell line and breast cancer cell line) as shown in Table 1. For each compound, dose response curves for each cell line were measured at a minimum of five concentrations at 10 fold dilutions. A protocol of 48 h continuous drug exposure was used and a sulforhodamine B (SRB) protein assay was used to estimate cell viability or growth.

[2] = tested on: CCRF-CEM; experiment: Anticancer activity, SRB assay, leukemia cell line CCRF-CEM; type: cell-based, human; conditions: 48 h continuous drug exposure, —^b means GI50 values not attained at the concentrations used; for GI50: Homo sapiens, read-out: Growth Inhibition GI50
Experimental: as §1, §2

[3] = tested on: SK-MEL-5; experiment: Anticancer activity, SRB assay, melanoma cell line SK-MEL-5; type: cell-based; conditions: Homo sapiens; Melanoma SK-MEL-5; 48 h continuous drug exposure; read-out: Growth Inhibition GI50
Experimental: as §1, §2

[4] = tested on: MDA-MB-468; experiment: Anticancer activity, SRB assay, breast cell line MDA-MB-468; type: cell-based; conditions: Homo sapiens; Breast MDA-MB-468; 48 h continuous drug exposure; read-out: Growth Inhibition GI50
Experimental: as §1, §2

[5] = tested on: two prostate cancer cell line (PC-3, DU-145); experiment: Anticancer activity, SRB assay, prostate panel; type: cell-based, human; conditions: for GI50: Homo sapiens, DU-145, two prostate cancer cell line, exposure period of at least 48 h, read-out: GI50 (range over the panel); for mean graph midpoint values (MG_MID) of log10 TGI (Log10TGI50) / mean graph midpoint values (MG_MID) of Log10LC50 / mean graph midpoint values (MG_MID) of Log10GI50: Prostate; for mean graph midpoint values (MG_MID) of log10 TGI (Log10TGI50): log value of concentration of the compound resulting in total inhibition of net cell growth; for mean graph midpoint values (MG_MID) of Log10LC50: log value of the concentration of compounds leading to 50% net cell death; for mean graph midpoint values (MG_MID) of Log10GI50: log values of concentration in mol/L causing 50% inhibition of net cell growth
Experimental: as §1, §2

[6] = tested on: RPMI-8226; experiment: Anticancer activity, SRB assay, leukemia cell line RPMI-8226; type: cell-based; conditions: Homo sapiens; Leukemia RPMI-8226; 48 h continuous drug exposure; read-out: Growth Inhibition GI50
Experimental: as §1, §2

[7] = tested on: LOX IMVI; experiment: Anticancer activity, SRB assay, melanoma cell line LOX IMVI; type: cell-based; conditions: Homo sapiens, 48 h continuous drug exposure, read-out: Growth Inhibition GI50
Experimental: as §1, §2

[8] = tested on: SNB-19; experiment: Anticancer activity, SRB assay, CNS cell line SNB-19; type: cell-based, human; conditions: CNS SNB-19, 48 h continuous drug exposure, —^b means GI50 values not attained at the concentrations used; for GI50: Homo sapiens, read-out: Growth Inhibition GI50
Experimental: as §1, §2

[9] = tested on: K-562; experiment: Anticancer activity, SRB assay, leukemia cell line K-562; type: cell-based; conditions: Homo sapiens, K562; Leukemia K-562; 48 h continuous drug exposure; read-out: Growth Inhibition GI50
Experimental: as §1, §2

[10] = tested on: seven colon cancer cell line (COLO 205, HCC-2998, HCT-116, HCT-15, HT29, KM12 and SW-620); experiment: Anticancer activity, SRB assay, colon panel; type: cell-based, human; conditions: for mean graph midpoint values (MG_MID) of log10 TGI (Log10TGI50) / mean graph midpoint values (MG_MID) of Log10LC50 / mean graph midpoint values (MG_MID) of Log10GI50: Colon; for mean graph midpoint values (MG_MID) of log10 TGI (Log10TGI50): log value of concentration of the compound resulting in total inhibition of net cell growth; for mean graph midpoint values (MG_MID) of Log10LC50: log value of the concentration of compounds leading to 50% net cell death; for mean graph midpoint values (MG_MID) of Log10GI50: log values of concentration in mol/L causing 50% inhibition of net cell growth; for GI50: Homo sapiens, seven colon cancer cell line, exposure period of at least 48 h, read-out: GI50 (range over the panel)
Experimental: as §1, §2

[11] = tested on: A549/ATCC; experiment: Anticancer activity, SRB assay, non-small lung cell line A549/ATCC; type: cell-based, human; conditions: 48 h continuous drug exposure, —^b means GI50 values not attained at the concentrations used; for GI50: Homo sapiens, read-out: Growth Inhibition GI50
Experimental: as §1, §2

[12] = tested on: NCI-H23; experiment: Anticancer activity, SRB assay, non-small lung cell line NCI-H23; type: cell-based; conditions: Homo sapiens, Non-small lung NCl-H23, 48 h continuous drug exposure, read-out: Growth Inhibition GI50
Experimental: as §1, §2

[13] = tested on: M14; experiment: Anticancer activity, SRB assay, melanoma cell line M14; type: cell-based; conditions: Homo sapiens, 48 h continuous drug exposure, read-out: Growth Inhibition GI50
Experimental: as §1, §2

[14] = tested on: 786-0; experiment: Anticancer activity, SRB assay, renal cell line 786-0; type: cell-based, human; conditions: Renal 786-0, 48 h continuous drug exposure, —^b means GI50 values not attained at the concentrations used; for GI50: Homo sapiens, read-out: Growth Inhibition GI50
Experimental: as §1, §2

[15] = tested on: EKVX; experiment: Anticancer activity, SRB assay, non-small lung cell line EKVX; type: cell-based; conditions: Homo sapiens, 48 h continuous drug exposure, read-out: Growth Inhibition GI50
Experimental: as §1, §2

[16] = tested on: six leukemia cancer cell lines (CCRF-CEM, HL-60, K-562, MOLT-4, SR and RPMI-8226); experiment: Anticancer activity, SRB assay, leukemia panel; type: cell-based, human; conditions: for GI50: Homo sapiens, six leukemia cancer cell lines, exposure period of at least 48 h, read-out: GI50 (range over the panel); for mean graph midpoint values (MG_MID) of log10 TGI (Log10TGI50) / mean graph midpoint values (MG_MID) of Log10LC50 / mean graph midpoint values (MG_MID) of Log10GI50: Leukemia; for mean graph midpoint values (MG_MID) of log10 TGI (Log10TGI50): log value of concentration of the compound resulting in total inhibition of net cell growth; for mean graph midpoint values (MG_MID) of Log10LC50: log value of the concentration of compounds leading to 50% net cell death; for mean graph midpoint values (MG_MID) of Log10GI50: log values of concentration in mol/L causing 50% inhibition of net cell growth
Experimental: as §1, §2

[17] = tested on: TK-10; experiment: Anticancer activity, SRB assay, renal cell line TK-10; type: cell-based, human; conditions: Renal TK-10, 48 h continuous drug exposure, —^b means GI50 values not attained at the concentrations used; for GI50: Homo sapiens, read-out: Growth Inhibition GI50
Experimental: as §1, §2

[18] = tested on: RXF 393; experiment: Anticancer activity, SRB assay, renal cell line RXF 393; type: cell-based, human; conditions: Renal RXF 393; 48 h continuous drug exposure; —^b means GI50 values not attained at the concentrations used
Experimental: as §1, §2

Structure (SMILES) | GI50 [1] [nM] | mean graph midpoint values (MG_MID) of log10 TGI (Log10TGI50) [1] | mean graph midpoint values (MG_MID) of Log10LC50 [1] | mean graph midpoint values (MG_MID) of Log10GI50 [1] [mol/L] | GI50 [3] [nM] | GI50 [4] [nM] | mean graph midpoint values (MG_MID) of log10 TGI (Log10TGI50) [5] | mean graph midpoint values (MG_MID) of Log10LC50 [5] | mean graph midpoint values (MG_MID) of Log10GI50 [5] [mol/L] | GI50 [6] [nM] | GI50 [7] [nM] | GI50 [9] [nM] | mean graph midpoint values (MG_MID) of log10 TGI (Log10TGI50) [10] | mean graph midpoint values (MG_MID) of Log10LC50 [10] | mean graph midpoint values (MG_MID) of Log10GI50 [10] [mol/L] | GI50 [10] [nM] | GI50 [12] [nM] | GI50 [13] [nM] | GI50 [15] [nM] | GI50 [16] [nM] | also measured
Cc1cc(C#Cc2ccccc2)ccc1-n1c(/C=C/c2ccc(O)cc2)nc2ccccc2c1=O [Compound 4b, (E)-2-(4-Hydroxystyryl)-3-(2-methyl-4-(phenylethynyl)phenyl)quinazolin-4(3H)-one] | 1560 to 3770 | −4.65 | >−4.00 | −5.52 | 1770 | 3780 | >−4.00 | >−4.00 | −5.40 | 2330 | 2780 | 2000 | −4.83 | −4.15 | −5.55 | 1990 to 4080 | 3620 | 3260 | 2430 | 1660 to 3260 | GI50 [2]: 3260 nM; GI50 [5]: 3240 to 4870 nM; GI50 [8]: 6910 nM; GI50 [11]: 3140 nM; GI50 [14]: 3650 nM; mean graph midpoint values (MG_MID) of log10 TGI (Log10TGI50) [16]: −4.49; mean graph midpoint values (MG_MID) of Log10LC50 [16]: >−4.00; mean graph midpoint values (MG_MID) of Log10GI50 [16]: −5.64 mol/L; GI50 [17]: 2620 nM
Cc1cc(C#Cc2ccccc2)ccc1-n1c(/C=C/c2cc(O)ccc2O)nc2ccccc2c1=O [Compound 4c, (E)-2-(2,5-Dihydroxystyryl)-3-(2-methyl-4-(phenylethynyl)phenyl)quinazolin-4(3H)-one] | 370 to 2150 | −5.43 | −4.93 | −5.86 | 1350 | 1610 | −5.43 | −4.68 | −6.17 | 1260 | 1370 | 1420 | −5.53 | −5.23 | −5.83 | 1030 to 1950 | 1480 | 1540 | 1240 | 634 to 1540 | GI50 [2]: 1540 nM; GI50 [5]: 419 to 2190 nM; GI50 [8]: 1620 nM; GI50 [11]: 1280 nM; GI50 [14]: 1740 nM; mean graph midpoint values (MG_MID) of log10 TGI (Log10TGI50) [16]: −5.38; mean graph midpoint values (MG_MID) of Log10LC50 [16]: −4.40; mean graph midpoint values (MG_MID) of Log10GI50 [16]: −5.94 mol/L; GI50 [17]: 2030 nM
COc1ccc2cc(C#Cc3ccc(-n4c(/C=C/c5cc(OC)c(OC)c(OC)c5)nc5ccccc5c4=O)c(C)c3)ccc2c1 [Compound 6l, (E)-3-(4-((6-Methoxynaphthalen-2-yl)ethynyl)-2-methylphenyl)-2-(3,4,5-trimethoxystyryl)quinazolin-4(3H)-one] | 4910 | >−4.00 | >−4.00 | −4.16 | 1850 | 3800 | >−4.00 | >−4.00 | −4.00 | 821 | 5960 | 882 | >−4.00 | >−4.00 | −5.16 | 1220 to 17200 | 40500 | 12700 | 24100 | 395 to 4660 | Growth Inhibition GI50 [2]: —^b; Growth Inhibition GI50 [18]: —^b; Growth Inhibition GI50 [8]: —^b; Growth Inhibition GI50 [11]: —^b; Growth Inhibition GI50 [14]: —^b; mean graph midpoint values (MG_MID) of log10 TGI (Log10TGI50) [16]: >−4.00; mean graph midpoint values (MG_MID) of Log10LC50 [16]: >−4.00; mean graph midpoint values (MG_MID) of Log10GI50 [16]: −5.67 mol/L; Growth Inhibition GI50 [17]: —^b
